PubChem BioAssay (NCI)
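Dose response: 5 concentrations. Exposure: 48 h. Format: 96-well plates. Endpoint: linear interpolation; highest concentration if not reached. At the GI50, growth is halved. At the TGI there is no net growth.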

Legend:
Assay in all cases: NCI tumour cell line growth inhibition, 48 h
[1] = test system: SK-MEL-28 melanoma
[2] = test system: UO-31 renal
[3] = test system: 786-0 renal
[4] = test system: NCI-H460 lung
[5] = test system: UACC-257 melanoma
[6] = test system: DU-145 prostate
[7] = test system: A549 NSCLC
[8] = test system: HT29 colon
[9] = test system: HCT-116 colon
[10] = test system: NCI/ADR-RES ovarian
[11] = test system: RPMI-8226 leukemia
[12] = test system: NCI-H23 lung
[13] = test system: NCI-H522 lung
[14] = test system: K-562 leukemia
[15] = test system: OVCAR-5 ovarian
[16] = test system: MALME-3M melanoma
[17] = test system: T-47D breast
[18] = test system: CCRF-CEM leukemia
[19] = test system: BT-549 breast
[20] = test system: COLO 205 colon
[21] = test system: CAKI-1 renal
[22] = test system: MDA-MB-468 breast
[23] = test system: MOLT-4 leukemia
[24] = test system: PC-3 prostate
[25] = test system: EKVX NSCLC
[26] = test system: A498 renal
[27] = test system: SF-268 CNS
[28] = test system: U251 CNS
[29] = test system: KM12 colon
[30] = test system: SN12C renal
[31] = test system: HS 578T breast
[32] = test system: M14 melanoma
[33] = test system: SNB-19 CNS
[34] = test system: SF-295 CNS
[35] = test system: SK-MEL-5 melanoma
[36] = test system: HOP-92 NSCLC
[37] = test system: MDA-MB-435
[38] = test system: IGROV1 ovarian
[39] = test system: OVCAR-3 ovarian
[40] = test system: HL-60(TB) leukemia
[41] = test system: SNB-75 CNS
[42] = test system: HCC-2998 colon
[43] = test system: SK-MEL-2 melanoma
[44] = test system: SF-539 CNS
[45] = test system: UACC-62 melanoma
[46] = test system: RXF 393 renal
[47] = test system: OVCAR-8 ovarian
[48] = test system: TK-10 renal
[49] = test system: HOP-62 NSCLC
[50] = test system: SR leukemia
[51] = test system: MDA-MB-231 breast
[52] = test system: LOX IMVI melanoma
[53] = test system: OVCAR-4 ovarian
[54] = test system: HCT-15 colon
[55] = test system: MCF7 breast
[56] = test system: SW-620 colon
[57] = test system: ACHN renal
[58] = test system: NCI-H226 lung
[59] = test system: SK-OV-3 ovarian

## COc1ccc(-c2nc(S(=O)(=O)c3ccccc3)c(S(C)(=O)=O)o2)cc1
[1]
  GI50: 12.5 µM
  TGI: 25.2 µM
[2]
  GI50: 5.43 µM
  TGI: 18.3 µM
[3]
  GI50: 2080 nM
  TGI: 4.98 µM
[4]
  GI50: 13.9 µM
  TGI: 29.7 µM
[5]
  GI50: 13 µM
  TGI: 28 µM
[6]
  GI50: 6.26 µM
  TGI: 20.4 µM
[7]
  GI50: 19.1 µM
  TGI: 42.1 µM
[8]
  GI50: 3150 nM
  TGI: 9.31 µM
[9]
  GI50: 1990 nM
  TGI: 4.58 µM
[10]
  GI50: 17 µM
  TGI: 48 µM
[11]
  GI50: 3.97 µM
  TGI: > 100 µM
[12]
  GI50: 12 µM
  TGI: 27.2 µM
[13]
  GI50: 1650 nM
  TGI: 3.32 µM
[14]
  GI50: 2770 nM
  TGI: > 100 µM
[15]
  GI50: 14.4 µM
  TGI: 27.9 µM
[16]
  GI50: 1670 nM
  TGI: 3.1 µM
[17]
  GI50: 2160 nM
  TGI: 5.03 µM
[18]
  GI50: 2070 nM
  TGI: 6.22 µM
[19]
  GI50: 10.1 µM
  TGI: 22.6 µM
[20]
  GI50: 2220 nM
  TGI: 4.9 µM
[21]
  GI50: 2590 nM
  TGI: 10.9 µM
[22]
  GI50: 2240 nM
  TGI: 4.41 µM
[23]
  GI50: 3390 nM
  TGI: 13.2 µM
[24]
  GI50: 14.1 µM
  TGI: 30 µM
[25]
  GI50: 12.2 µM
  TGI: 26.6 µM
[26]
  GI50: 15.5 µM
  TGI: 29 µM
[27]
  GI50: 14.4 µM
  TGI: 33.9 µM
[28]
  GI50: 17.7 µM
  TGI: 34.3 µM
[29]
  GI50: 17.6 µM
  TGI: 35.7 µM
[30]
  GI50: 11.4 µM
  TGI: 23.5 µM
[31]
  GI50: 12.8 µM
  TGI: 48.4 µM
[32]
  GI50: 3260 nM
  TGI: 14.3 µM
[33]
  GI50: 16.5 µM
  TGI: 31.8 µM
[34]
  GI50: 15.7 µM
  TGI: 29.6 µM
[35]
  GI50: 15.2 µM
  TGI: 29.1 µM
[36]
  GI50: 7.29 µM
  TGI: 20.8 µM
[37]
  GI50: 8.96 µM
  TGI: 21.8 µM
[38]
  GI50: 13.1 µM
  TGI: 27.2 µM
[39]
  GI50: 1740 nM
  TGI: 3.33 µM
[40]
  GI50: 2380 nM
  TGI: 20.9 µM
[41]
  GI50: 11.3 µM
  TGI: 23.7 µM
[42]
  GI50: 15 µM
  TGI: 29 µM
[43]
  GI50: 14.2 µM
  TGI: 28 µM
[44]
  GI50: 3930 nM
  TGI: 14.6 µM
[45]
  GI50: 11.2 µM
  TGI: 23.2 µM
[46]
  GI50: 2070 nM
  TGI: 4.09 µM
[47]
  GI50: 13.6 µM
  TGI: 32.1 µM
[48]
  GI50: 7.5 µM
  TGI: 21 µM
[49]
  GI50: 18.2 µM
  TGI: 35.2 µM
[50]
  GI50: 2660 nM
  TGI: 25.6 µM
[51]
  GI50: 3520 nM
  TGI: 12.2 µM
[52]
  GI50: 1540 nM
  TGI: 2920 nM
[53]
  GI50: 3.44 µM
  TGI: 15.4 µM
[54]
  GI50: 2040 nM
  TGI: 4.62 µM
[55]
  GI50: 2460 nM
  TGI: 8.25 µM
[56]
  GI50: 1670 nM
  TGI: 3.39 µM
[57]
  GI50: 1700 nM
  TGI: 3.13 µM
[58]
  GI50: 18.2 µM
  TGI: 40.9 µM
[59]
  GI50: 21.7 µM
  TGI: 44.9 µM

## O=C(/C=C/c1ccc(F)cc1)c1nc2ccccc2n1Cc1ccc(Br)cc1
[1]
  GI50: 1.85 µM
  TGI: 3.77 µM
[2]
  GI50: 1.42 µM
  TGI: 2.93 µM
[3]
  GI50: 1930 nM
  TGI: 3.89 µM
[4]
  GI50: 1.89 µM
  TGI: 4 µM
[5]
  GI50: 3.2 µM
  TGI: 14.7 µM
[6]
  GI50: 3.47 µM
  TGI: 26 µM
[7]
  GI50: 3.93 µM
  TGI: 35.3 µM
[8]
  GI50: 2370 nM
  TGI: 4.93 µM
[9]
  GI50: 1960 nM
  TGI: 4.26 µM
[11]
  GI50: 2.29 µM
  TGI: 6.87 µM
[12]
  GI50: 1.95 µM
  TGI: 4.37 µM
[13]
  GI50: 2170 nM
  TGI: 4.68 µM
[14]
  GI50: 2840 nM
  TGI: > 100 µM
[15]
  GI50: 1.94 µM
  TGI: 4.16 µM
[16]
  GI50: 1830 nM
  TGI: 4.17 µM
[17]
  GI50: 2680 nM
  TGI: 11.3 µM
[18]
  GI50: 1620 nM
  TGI: 8.35 µM
[19]
  GI50: 2.24 µM
  TGI: 5.81 µM
[20]
  GI50: 2350 nM
  TGI: 5.55 µM
[21]
  GI50: 1970 nM
  TGI: 5.74 µM
[22]
  GI50: 1900 nM
  TGI: 4.12 µM
[23]
  GI50: 2410 nM
  TGI: 8.96 µM
[24]
  GI50: 3.37 µM
  TGI: 13.7 µM
[25]
  GI50: 2.62 µM
  TGI: 7.78 µM
[26]
  GI50: 17.2 µM
  TGI: 32.1 µM
[27]
  GI50: 3.58 µM
  TGI: 67.8 µM
[28]
  GI50: 1.54 µM
  TGI: 2.99 µM
[29]
  GI50: 2.13 µM
  TGI: 5.22 µM
[30]
  GI50: 3.02 µM
  TGI: 11.1 µM
[31]
  GI50: 3.71 µM
  TGI: 43.3 µM
[32]
  GI50: 2330 nM
  TGI: 6.43 µM
[34]
  GI50: 2.14 µM
  TGI: 5.29 µM
[35]
  GI50: 2.36 µM
  TGI: 6.69 µM
[36]
  GI50: 2.03 µM
  TGI: 12.1 µM
[37]
  GI50: 1.85 µM
  TGI: 4.19 µM
[38]
  GI50: 2.31 µM
  TGI: 5.81 µM
[39]
  GI50: 1760 nM
  TGI: 3.42 µM
[40]
  GI50: 2020 nM
  TGI: 6.3 µM
[41]
  GI50: 1.2 µM
  TGI: 12.2 µM
[42]
  GI50: 1.81 µM
  TGI: 3.36 µM
[43]
  GI50: 2.12 µM
  TGI: 4.74 µM
[44]
  GI50: 1910 nM
  TGI: 3.8 µM
[45]
  GI50: 1.74 µM
  TGI: 4.3 µM
[46]
  GI50: 1480 nM
  TGI: 2.89 µM
[47]
  GI50: 2.26 µM
  TGI: 5.51 µM
[48]
  GI50: 2.73 µM
  TGI: 8.11 µM
[49]
  GI50: 2.1 µM
  TGI: 4.87 µM
[50]
  GI50: 2790 nM
  TGI: > 100 µM
[51]
  GI50: 2100 nM
  TGI: 4.66 µM
[52]
  GI50: 1590 nM
  TGI: 3060 nM
[53]
  GI50: 4.3 µM
  TGI: 51.4 µM
[54]
  GI50: 1670 nM
  TGI: 3.46 µM
[55]
  GI50: 1720 nM
  TGI: 9.27 µM
[56]
  GI50: 2140 nM
  TGI: 4.44 µM
[57]
  GI50: 2800 nM
  TGI: 8.7 µM
[58]
  GI50: 2.96 µM
  TGI: 13.1 µM
[59]
  GI50: 10.5 µM
  TGI: > 100 µM
